≈ marks a conversion by molar mass, not a printed value. Like-named read-outs stand apart in the source and are kept apart here.
Columns and labels:
M. tuberculosis Dxr = M. tuberculosis Dxr (Mycobacterium tuberculosis, UniProt P9WNS1); experiment: biochemical
Mtb H37Rv (ATCC 27294) = experiment: microbe, parasite or virus in culture; format: cell-based, Mycobacterium tuberculosis; conditions: for MIC: Mycobacterium tuberculosis
E. coli k12 = experiment: microbe, parasite or virus in culture; format: cell-based
B. anthracis = experiment: microbe, parasite or virus in culture; format: cell-based, Bacillus anthracis
E. coli tolc = experiment: microbe, parasite or virus in culture; format: cell-based
S. aureus (MSSA) = experiment: microbe, parasite or virus in culture; format: cell-based
E. faecalis = experiment: microbe, parasite or virus in culture; format: cell-based
Acinetobacter = experiment: microbe, parasite or virus in culture; format: cell-based
MRSA NRS 70 = experiment: microbe, parasite or virus in culture; format: cell-based, S. aureus
[1] = read-out: Mtb MIC (ug/mL) (7H9)
[2] = read-out: Mtb MIC (ug/mL) (GAST)

Chain of M. tuberculosis Dxr (P9WNS1 whole entry, looked up): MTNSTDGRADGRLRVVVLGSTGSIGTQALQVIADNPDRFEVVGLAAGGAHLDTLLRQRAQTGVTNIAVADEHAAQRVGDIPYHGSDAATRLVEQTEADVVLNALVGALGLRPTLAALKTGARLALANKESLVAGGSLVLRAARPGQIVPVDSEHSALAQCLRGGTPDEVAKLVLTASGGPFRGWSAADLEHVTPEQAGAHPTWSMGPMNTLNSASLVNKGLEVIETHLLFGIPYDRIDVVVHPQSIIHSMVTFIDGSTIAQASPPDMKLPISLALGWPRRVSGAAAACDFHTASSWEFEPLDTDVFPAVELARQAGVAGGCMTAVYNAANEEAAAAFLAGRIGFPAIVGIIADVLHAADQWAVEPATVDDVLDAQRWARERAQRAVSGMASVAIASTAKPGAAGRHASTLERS

CC(=O)N(CCCP(=O)(O)O)OCc1ccc(C(C)C)cc1 [Compound 5, Sodium hydrogen 3-(N-(4-isopropylbenzyloxy)acetamido)propylphosphonate] gave an IC50 (M. tuberculosis Dxr; IC50 (μM)) of 50.6 µM.

O=C(NCCCP(=O)(O)O)c1ccc2ccccc2c1 [GSJ 56] was tested, and the MIC (Mtb H37Rv (ATCC 27294); read-out: Mtb MIC (ug/mL)) was over 200 µg/mL, the remaining activity at 100 µg/mL (M. tuberculosis Dxr; read-out: Mtb Dxr, value in parentheses (percent enzyme activity remaining)) was 90% and the remaining activity at 100 µg/mL (M. tuberculosis Dxr; read-out: percent enzyme activity remaining at 100 ug/ml compound) was 90%.

With CCOP(=O)(CCCN(OCc1cccc(Br)c1)C(C)=O)OCC [GSJ115] the MIC (Mtb H37Rv (ATCC 27294); read-out: Mtb MIC (ug/mL)) was 400 µg/mL (≈ 947 µM).

CCOP(=O)(CCCN(O)C(=O)c1ccccc1)OCC [Compound 9a] showed an MIC (Mtb H37Rv (ATCC 27294); read-out: MIC 7H9 (μg/mL)) of over 500 µg/mL and an MIC (Mtb H37Rv (ATCC 27294); read-out: MIC GAST/Fe (μg/mL)) of 31.2 µg/mL (≈ 99.1 µM).

For CC(=O)N(O)CCCCP(=O)(O)O [GSJ54], the MIC (Mtb H37Rv (ATCC 27294); read-out: Mtb MIC (ug/mL)) was over 200 µg/mL and the IC50 (M. tuberculosis Dxr; Mtb Dxr IC50 (ug/mL)) was 13.2 µM.

Molecule CCOP(=O)(CCCN(OCc1ccc(C(C)C)cc1)C(C)=O)OCC [GSJ70] has an MIC (Mtb H37Rv (ATCC 27294); [1]) of 400 µg/mL (≈ 1040 µM) and an MIC (Mtb H37Rv (ATCC 27294); [2]) of 200 µg/mL (≈ 519 µM).

Work on CCOP(=O)(CCCN(OCc1cccc(-c2ccccc2)c1)C(C)=O)OCC [GSJ100] yielded an MIC (Mtb H37Rv (ATCC 27294); read-out: Mtb MIC (ug/mL)) of 100 µg/mL (≈ 238 µM).

For CC(=O)N(O)CCCP(=O)(OCC(=O)OC(C)(C)C)OCC(=O)OC(C)(C)C [Compound 23], the “MIC E. coli k12” value (E. coli k12) was over 200 µg/mL, the “MIC B. anthracis” value (B. anthracis) was over 200 µg/mL and the “MIC E. coli tolc” value (E. coli tolc) was over 200 µg/mL. For the same molecule, the “MIC M. tuberculosis (H37Rv)” value (Mtb H37Rv (ATCC 27294)) was 400 µg/mL (≈ 940 µM), the “MIC S. aureus (MSSA)” value (S. aureus (MSSA)) was 100 µg/mL (≈ 235 µM) and the “MIC E. faecalis” value (E. faecalis) was over 200 µg/mL. For the same molecule, the “MIC Acinetobacter” value (Acinetobacter) was over 200 µg/mL and the “MIC S. aureus (MRSA)” value (MRSA NRS 70) was 25 µg/mL (≈ 58.8 µM).

In the case of CC(=O)N(CCCP(=O)(O)O)OCCc1ccccc1 [GSJ78], the MIC (Mtb H37Rv (ATCC 27294); read-out: Mtb MIC (ug/mL)) is reported as over 200 µg/mL and the IC50 (M. tuberculosis Dxr; Mtb Dxr IC50 (ug/mL)) is reported as 103 µM.

With CCOC(=O)OC(C)OP(=O)(CCCN(O)C(C)=O)OC(C)OC(=O)OCC (stereo not drawn) [Compound 22] the “MIC E. coli k12” value (E. coli k12) was over 200 µg/mL, the “MIC B. anthracis” value (B. anthracis) was over 200 µg/mL and the “MIC E. coli tolc” value (E. coli tolc) was 200 µg/mL (≈ 466 µM). For the same molecule, the “MIC M. tuberculosis (H37Rv)” value (Mtb H37Rv (ATCC 27294)) was 400 µg/mL (≈ 932 µM), the “MIC S. aureus (MSSA)” value (S. aureus (MSSA)) was over 200 µg/mL and the “MIC E. faecalis” value (E. faecalis) was over 200 µg/mL. The “MIC Acinetobacter” value (Acinetobacter) was over 200 µg/mL and the “MIC S. aureus (MRSA)” value (MRSA NRS 70) was over 200 µg/mL.

With CCOP(=O)(CCCN(OCCc1ccc(O)cc1)C(C)=O)OCC [GSJ80] the MIC (Mtb H37Rv (ATCC 27294); read-out: Mtb MIC (ug/mL)) was 200 to 400 µg/mL (≈ 536 to 1070 µM).

Molecule O=C(C1CCCCC1)N(O)CCCP(=O)(O)O [Compound 9, Sodium hydrogen 3-(N-hydroxycyclohexanecarboxamido)propylphosphonate] has an IC50 (M. tuberculosis Dxr; IC50 (μM)) of 57.8 µM.

For CC(=O)N(O)CCCP(=O)(OCOC(=O)C(C)(C)C)OCOC(=O)C(C)(C)C [Compound 24], the “MIC E. coli k12” value (E. coli k12) was over 200 µg/mL, the “MIC B. anthracis” value (B. anthracis) was 200 µg/mL (≈ 470 µM) and the “MIC E. coli tolc” value (E. coli tolc) was 100 µg/mL (≈ 235 µM). For the same molecule, the “MIC M. tuberculosis (H37Rv)” value (Mtb H37Rv (ATCC 27294)) was 50 to 100 µg/mL, the “antitubercular activity (in words)” value (Mtb H37Rv (ATCC 27294)) was “better antitubercular activity” and the “MIC S. aureus (MSSA)” value (S. aureus (MSSA)) was 100 µg/mL (≈ 235 µM). The “MIC E. faecalis” value (E. faecalis) was over 200 µg/mL, the “MIC Acinetobacter” value (Acinetobacter) was over 200 µg/mL and the “MIC S. aureus (MRSA)” value (MRSA NRS 70) was 50 µg/mL (≈ 118 µM).

Work on O=C(C1CC1)N(O)CCCP(=O)([O-])O.[Na+] [ERJ 123] yielded an MIC (Mtb H37Rv (ATCC 27294); read-out: Mtb MIC (ug/mL)) of over 400 µg/mL.

CCOP(=O)(CCCN(OCCc1ccc(C)cc1)C(C)=O)OCC [GSJ82] was tested, and the MIC (Mtb H37Rv (ATCC 27294); [1]) was at least 400 µg/mL.

With O=C(Cc1ccccc1)N(O)CCCP(=O)(O)O [GSJ 55] the MIC (Mtb H37Rv (ATCC 27294); read-out: Mtb MIC (ug/mL)) was over 200 µg/mL, the IC50 (M. tuberculosis Dxr; IC50 (uM)) was 7.49 µM and the IC50 (M. tuberculosis Dxr; IC50 (ug/ml)) was 8.09 µM. For the same molecule, the IC50 (M. tuberculosis Dxr; Mtb Dxr IC50 (ug/mL)) was 8.09 µM.

CC(=O)N(CCCP(=O)(O)O)OCCc1ccccc1 [Compound 3, Sodium hydrogen 3-(N-(phenethyloxy)acetamido)propylphosphonate] showed an IC50 (M. tuberculosis Dxr; IC50 (μM)) of 96.4 µM.

With O=C(Cc1ccccc1)N(O)CCCP(=O)(O)O [Compound 7, Sodium hydrogen 3-(N-hydroxy-2-phenylacetamido)propylphosphonate] the IC50 (M. tuberculosis Dxr; IC50 (μM)) was 7.5 µM.

O=C(CCCc1ccccc1)N(O)CCCP(=O)(O)O [GSJ 52] showed an MIC (Mtb H37Rv (ATCC 27294); read-out: Mtb MIC (ug/mL)) of over 200 µg/mL, an IC50 (M. tuberculosis Dxr; IC50 (uM)) of 3.12 µM and an IC50 (M. tuberculosis Dxr; IC50 (ug/ml)) of 3.35 µM. For the same molecule, the IC50 (M. tuberculosis Dxr; Mtb Dxr IC50 (ug/mL)) was 3.35 µM.

For CC(=O)N(CCCP(=O)(O)O)OC(C)c1ccccc1 (stereo not drawn) [GSJ 63], the MIC (Mtb H37Rv (ATCC 27294); read-out: Mtb MIC (ug/mL)) was over 200 µg/mL, the IC50 (M. tuberculosis Dxr; IC50 (uM)) was 161 µM and the IC50 (M. tuberculosis Dxr; IC50 (ug/ml)) was 173 µM. For the same molecule, the IC50 (M. tuberculosis Dxr; Mtb Dxr IC50 (ug/mL)) was 173 µM.

For CCOP(=O)(CCN(O)C(C)=O)OCC [Compound 5f], the “MIC 7H9” value (Mtb H37Rv (ATCC 27294)) was over 500 µg/mL and the “MIC GAST/Fe” value (Mtb H37Rv (ATCC 27294)) was over 500 µg/mL.

CCOP(=O)(CCCN(OCc1ccc(Br)cc1)C(C)=O)OCC [GSJ113] showed an MIC (Mtb H37Rv (ATCC 27294); read-out: Mtb MIC (ug/mL)) of 400 µg/mL (≈ 947 µM).

For CCOP(=O)(CCN(O)C=O)OCC [Compound 5b], the “MIC 7H9” value (Mtb H37Rv (ATCC 27294)) was over 500 µg/mL and the “MIC GAST/Fe” value (Mtb H37Rv (ATCC 27294)) was over 500 µg/mL.

With CC(=O)N(CCCP(=O)(OCOC(=O)C(C)(C)C)OCOC(=O)C(C)(C)C)OCc1ccc(C(C)C)cc1 [GSJ96] the MIC (Mtb H37Rv (ATCC 27294); read-out: Mtb MIC (ug/mL)) was 12.5 µg/mL (≈ 22.4 µM).

CCOP(=O)(CCCN(O)C(=O)C1CC1)OCC [ERJ 119] was tested, and the “Mtb MIC (ug/mL) (7H9)” value (Mtb H37Rv (ATCC 27294)) was >200 (7H9) >200 (GAST) ug/mL and the “Mtb MIC (ug/mL) (GAST)” value (Mtb H37Rv (ATCC 27294)) was >200 (7H9) >200 (GAST) ug/mL.

In the case of CC(=O)N(CCCP(=O)(O)O)OCc1ccc(-c2ccccc2)cc1 [GSJ74], the MIC (Mtb H37Rv (ATCC 27294); read-out: Mtb MIC (ug/mL)) is reported as 25 to 50 µg/mL (≈ 68.8 to 138 µM) and the IC50 (M. tuberculosis Dxr; Mtb Dxr IC50 (ug/mL)) is reported as 68.6 µM.

CC(=O)N(CCCP(=O)(O)O)OCc1ccc(C(C)C)cc1 [GSJ76] was tested, and the MIC (Mtb H37Rv (ATCC 27294); [1]) was 200 µg/mL (≈ 607 µM), the MIC (Mtb H37Rv (ATCC 27294); [2]) was 25 µg/mL (≈ 75.9 µM) and the IC50 (M. tuberculosis Dxr; Mtb Dxr IC50 (ug/mL)) was 54 µM.

CC(=O)N(O)CCCP(=O)(OC(C)OC(=O)OC(C)(C)C)OC(C)OC(=O)OC(C)(C)C (stereo not drawn) [Compound 25] was tested, and the “MIC E. coli k12” value (E. coli k12) was over 200 µg/mL, the “MIC B. anthracis” value (B. anthracis) was 200 µg/mL (≈ 412 µM) and the “MIC E. coli tolc” value (E. coli tolc) was over 200 µg/mL. The “MIC M. tuberculosis (H37Rv)” value (Mtb H37Rv (ATCC 27294)) was 400 µg/mL (≈ 824 µM), the “MIC S. aureus (MSSA)” value (S. aureus (MSSA)) was 100 µg/mL (≈ 206 µM) and the “MIC E. faecalis” value (E. faecalis) was over 200 µg/mL. The “MIC Acinetobacter” value (Acinetobacter) was over 200 µg/mL and the “MIC S. aureus (MRSA)” value (MRSA NRS 70) was 50 µg/mL (≈ 103 µM).
